Reference: US10662218B2, “Analogs of celastrol” (ERX Pharmaceuticals, Inc., priority 2015, dated 2020)
“And” between values parts separate entries of the source, which are not always exact repeats. Equal entries are not always repeated. Where two headings read alike, the source gives them in different places.

Assays:
[1] = system: C57BL/6 Diet Induced Obese (DIO) mice; test: Oral (P.O.) administration study in DIO mice: in vivo activity, body weights; parameters: species or system mouse; conditions: for Individual Body Weight: individual male animals; for change in vivo at 2 mg/kg: Mus musculus, po, read-out: Body weight, %-Diff
Excerpt: The purpose of this study was to assess test articles in the Diet Induced Obese (DIO) mouse.
Male C57BL/6 Diet Induced Obese (DIO) mice were received from Taconic. Animals were acclimated to housing conditions for at least 1 week prior to vehicle acclimation dosing. Animals were acclimated to oral gavage dosing with vehicle once daily for Days 11 through 14 of the predose phase.
At initiation of dosing, animals were 21 to 22 weeks old, and their body weights ranged from 29.8 to 40.1 g.
Dose formulations were administered by oral gavage once daily for 10 days at a dose volume of 2 mL/kg. Doses were based on the most recently recorded scheduled body weight.
Body weights were recorded daily on Days 11 through 14 of the predose phase. Body weights were collected for all animals daily during the dosing phase prior to dosing.
Descriptive statistics (n, mean, standard error of the mean, standard deviation) were completed. Additionally, one-way analysis of variance followed by Dunnett's post-hoc test were performed on body weight (cumulative body weight change), glucose (glucose percent change), and food consumption (cumulative food consumption). Area under the curve (for body weight, cumulative body weight change, daily body weight change, and food consumption) was computed for treatment groups. An appropriate comparison test, such as one-way analysis of variance and Dunnett's, was performed on the group means for the area under the curve computations. Any additional statistical analysis and interpretation of the results were the responsibility of the sponsor.

[2] = system: C57BL/6 Diet Induced Obese (DIO) mice; test: Oral (P.O.) administration study in DIO mice: animal fate (mortality) and clinical observations; conditions: 2 mg/kg
Description: Male C57BL/6 DIO mice were assigned to 12 groups, and doses of 2 mg/kg Celastrol (ERX1000-4), ERX1006, ERX1007, ERX1037, ERX1060, ERX1077, ERX1107, ERX1149, ERX1168, ERX1177, and Pristimerin were administered to Groups 2 through 12, respectively. Animals were dosed via oral gavage once daily for 10 days at a volume of 2 mL/kg. The vehicle control article was 1% methyl cellulose (400 cps) in citric acid and phosphate buffer.
Parameters assessed included mortality, clinical observations, body weights and food consumption and blood glucose evaluations.
All animals were anesthetized via carbon dioxide, sacrificed, and discarded without further evaluation on Day 11.

[3] = DIO mice, male, 2 mg/kg, phase DSNG, Day 7
[4] = DIO mice, male, 2 mg/kg, phase DSNG, Day 8
[5] = DIO mice, male, 2 mg/kg, phase DSNG, Day 9
[6] = DIO mice, male, 2 mg/kg, phase DSNG, Day 10
[7] = DIO mice, male, 2 mg/kg, phase DSNG, Day 11
[8] = Day 1, DSNG phase, 2 mg/kg, male, N=5
[9] = Day 2, DSNG phase, 2 mg/kg, male, N=5
[10] = Day 3, DSNG phase, 2 mg/kg, male, N=5
[11] = Day 4, DSNG phase, 2 mg/kg, male, N=5
[12] = Day 5, DSNG phase, 2 mg/kg, male, N=5
[13] = Day 6, DSNG phase, 2 mg/kg, male, N=5

Question: Which “Individual Body Weight” value ([1]; 2 mg/kg, Phase Day DSNG 1) does the source give for `CC(=O)N(C)C[C@]1(C)CC[C@]2(C)CC[C@]3(C)C4=CC=C5C(=CC(=O)C(O)=C5C)[C@]4(C)CC[C@@]3(C)[C@@H]2C1` [ERX1149] here?
Answer: The value was 33.3 g and 35.8 g and 39.7 g and 31.5 g and 34.3 g.

Question: And the “Individual Body Weight” value ([1]; 2 mg/kg, Phase Day DSNG 2)?
Answer: The value was 32.2 g and 34.8 g and 39.9 g and 31.7 g and 34.1 g.

Question: And the “Individual Body Weight” value ([1]; 2 mg/kg, Phase Day PRED 11 (pre-dose baseline))?
Answer: Its value is 33.3 g and 38.3 g and 41.4 g and 33.7 g and 35.6 g.

Question: What about the “Individual Body Weight” value ([1]; 2 mg/kg, Phase Day PRED 12 (pre-dose baseline)) of the same compound?
Answer: The value was 33.3 g and 37.3 g and 41.5 g and 33.4 g and 36.3 g.

Question: What about the “Individual Body Weight” value ([1]; 2 mg/kg, Phase Day PRED 13 (pre-dose baseline)) of the same compound?
Answer: Its value is 33.1 g and 36.8 g and 41.4 g and 32.3 g and 35.2 g.

Question: And the “Individual Body Weight” value ([1]; 2 mg/kg, Phase Day PRED 14 (pre-dose baseline))?
Answer: The value was 33.5 g and 36.1 g and 41.0 g and 32.5 g and 36.5 g.

Question: What about the “Body weight, Mean” value [1, 3] of the same compound?
Answer: Its value is 32.8 g.

Question: What about the “Body weight, Mean” value [1, 4] of the same compound?
Answer: The value was 33.3 g.

Question: What about the “Body weight, Mean” value [1, 5] of the same compound?
Answer: The value was 33.1 g.

Question: What about the “Body weight, Mean” value [1, 6] of the same compound?
Answer: Its value is 33.5 g.

Question: And the “Body weight, Mean” value [1, 7]?
Answer: The value was 33.6 g.

Question: What about the “Body weight, Mean” value [1, 8] of the same compound?
Answer: The value was 34.9 g.

Question: What about the “Body weight, Mean” value [1, 9] of the same compound?
Answer: The value was 34.5 g.

Question: And the “Body weight, Mean” value [1, 10]?
Answer: The value was 34.1 g.

Question: What about the “Body weight, Mean” value [1, 11] of the same compound?
Answer: The value was 34.0 g.

Question: What about the “Body weight, Mean” value [1, 12] of the same compound?
Answer: Its value is 33.5 g.

Question: And the “Body weight, Mean” value [1, 13]?
Answer: Its value is 33.1 g.

Question: And the change in vivo at 2 mg/kg ([1]; 24 h, Day 1, DSNG phase, 2 mg/kg, male, difference of group mean)?
Answer: The change in vivo at 2 mg/kg was 2%.

Question: And the change in vivo at 2 mg/kg ([1]; 48 h, Day 2, DSNG phase, 2 mg/kg, male, difference of group mean)?
Answer: Its change in vivo at 2 mg/kg is 0%.

Question: What about the change in vivo at 2 mg/kg ([1]; 72 h, Day 3, DSNG phase, 2 mg/kg, male, difference of group mean) of the same compound?
Answer: The change in vivo at 2 mg/kg was 1%.

Question: What about the change in vivo at 2 mg/kg ([1]; 96 h, Day 4, DSNG phase, 2 mg/kg, male, difference of group mean) of the same compound?
Answer: The change in vivo at 2 mg/kg was 2%.

Question: And the change in vivo at 2 mg/kg ([1]; 120 h, Day 5, DSNG phase, 2 mg/kg, male, difference of group mean)?
Answer: Its change in vivo at 2 mg/kg is -1%.

Question: And the change in vivo at 2 mg/kg ([1]; 144 h, Day 6, DSNG phase, 2 mg/kg, male, difference of group mean)?
Answer: Its change in vivo at 2 mg/kg is -1%.

Question: What about the change in vivo at 2 mg/kg ([1]; 168 h, DIO mice, male, 2 mg/kg, phase DSNG, Day 7, difference of group mean from vehicle group 1) of the same compound?
Answer: Its change in vivo at 2 mg/kg is -2%.

Question: What about the change in vivo at 2 mg/kg ([1]; 192 h, DIO mice, male, 2 mg/kg, phase DSNG, Day 8, difference of group mean from vehicle group 1) of the same compound?
Answer: The change in vivo at 2 mg/kg was -1%.

Question: What about the change in vivo at 2 mg/kg ([1]; 216 h, DIO mice, male, 2 mg/kg, phase DSNG, Day 9, difference of group mean from vehicle group 1) of the same compound?
Answer: The change in vivo at 2 mg/kg was 0%.

Question: What about the change in vivo at 2 mg/kg ([1]; 240 h, DIO mice, male, 2 mg/kg, phase DSNG, Day 10, difference of group mean from vehicle group 1) of the same compound?
Answer: Its change in vivo at 2 mg/kg is 0%.

Question: And the change in vivo at 2 mg/kg ([1]; 264 h, DIO mice, male, 2 mg/kg, phase DSNG, Day 11, difference of group mean from vehicle group 1)?
Answer: Its change in vivo at 2 mg/kg is -1%.

Question: And the “Individual Animal Fate: Fate Status” value ([2]; mouse, in vivo)?
Answer: The value was “Scheduled Sacrifice”.

Question: With `COC(=O)[C@]1(C)CC[C@]2(C)CC[C@]3(C)C4=CC=C5C(=CC(=O)C(O)=C5C)[C@]4(C)CC[C@@]3(C)[C@@H]2C1` [Pristimerin, reference compound] as the compound, how does the “Body weight, Mean” value [1, 3] read?
Answer: The value was 33.5 g.

Question: And the “Body weight, Mean” value [1, 4]?
Answer: Its value is 33.1 g.

Question: And the “Body weight, Mean” value [1, 5]?
Answer: Its value is 32.9 g.

Question: And the “Body weight, Mean” value [1, 6]?
Answer: The value was 33.2 g.

Question: And the “Body weight, Mean” value [1, 7]?
Answer: The value was 33.9 g.

Question: And the “Body weight, Mean” value [1, 8]?
Answer: The value was 34.2 g.

Question: What about the “Body weight, Mean” value [1, 9] of the same compound?
Answer: Its value is 34.0 g.

Question: And the “Body weight, Mean” value [1, 10]?
Answer: The value was 33.7 g.

Question: What about the “Body weight, Mean” value [1, 11] of the same compound?
Answer: Its value is 33.3 g.

Question: What about the “Body weight, Mean” value [1, 12] of the same compound?
Answer: The value was 33.3 g.

Question: What about the “Body weight, Mean” value [1, 13] of the same compound?
Answer: The value was 33.4 g.

Question: What about the change in vivo at 2 mg/kg ([1]; 24 h) of the same compound?
Answer: Its change in vivo at 2 mg/kg is 0%.

Question: And the change in vivo at 2 mg/kg ([1]; 48 h)?
Answer: The change in vivo at 2 mg/kg was -1%.

Question: What about the change in vivo at 2 mg/kg ([1]; 72 h) of the same compound?
Answer: Its change in vivo at 2 mg/kg is -1%.

Question: And the change in vivo at 2 mg/kg ([1]; 96 h)?
Answer: The change in vivo at 2 mg/kg was 0%.

Question: What about the change in vivo at 2 mg/kg ([1]; 120 h) of the same compound?
Answer: Its change in vivo at 2 mg/kg is -1%.

Question: And the change in vivo at 2 mg/kg ([1]; 144 h)?
Answer: Its change in vivo at 2 mg/kg is 0%.

Question: What about the change in vivo at 2 mg/kg ([1]; 168 h) of the same compound?
Answer: Its change in vivo at 2 mg/kg is 0%.

Question: And the change in vivo at 2 mg/kg ([1]; 192 h)?
Answer: The change in vivo at 2 mg/kg was -2%.

Question: What about the change in vivo at 2 mg/kg ([1]; 216 h) of the same compound?
Answer: The change in vivo at 2 mg/kg was -1%.

Question: What about the change in vivo at 2 mg/kg ([1]; 240 h) of the same compound?
Answer: The change in vivo at 2 mg/kg was -1%.

Question: And the change in vivo at 2 mg/kg ([1]; 264 h)?
Answer: The change in vivo at 2 mg/kg was -1%.

Question: What about the “Individual Body Weight, PRED 11” value ([1]; individual male DIO mouse of the 2 mg/kg group, pre-dose phase day 11 (baseline)) of the same compound?
Answer: Its value is 42.4 g and 35.2 g and 31.7 g and 38.2 g and 33.9 g.

Question: What about the “Individual Body Weight, PRED 12” value ([1]; individual male DIO mouse of the 2 mg/kg group, pre-dose phase day 12 (baseline)) of the same compound?
Answer: Its value is 41.2 g and 34.5 g and 31.0 g and 37.5 g and 32.5 g.

Question: What about the “Individual Body Weight, PRED 13” value ([1]; individual male DIO mouse of the 2 mg/kg group, pre-dose phase day 13 (baseline)) of the same compound?
Answer: The value was 41.3 g and 33.4 g and 31.4 g and 37.3 g and 32.9 g.

Question: And the “Individual Body Weight, PRED 14” value ([1]; individual male DIO mouse of the 2 mg/kg group, pre-dose phase day 14 (baseline))?
Answer: The value was 41.9 g and 35.0 g and 31.6 g and 37.6 g and 33.1 g.

Question: And the “Individual Body Weight, DSNG 1” value ([1]; individual male DIO mouse, 2 mg/kg, dosing phase day 1, 2 mg/kg)?
Answer: The value was 40.0 g and 33.3 g and 29.8 g and 35.5 g and 32.3 g.

Question: What about the “Individual Body Weight, DSNG 2” value ([1]; individual male DIO mouse, 2 mg/kg, dosing phase day 2, 2 mg/kg) of the same compound?
Answer: The value was 39.4 g and 33.1 g and 30.2 g and 35.4 g and 32.1 g.

Question: And the “Individual Animal Fate: Fate Status” value ([2]; individual male DIO mouse, phase of fate Dosing, phase week 2, phase day 11)?
Answer: The value was “Scheduled Sacrifice”.
